Source: US5643917A, “4-aminomethyl-1-azaadamantane derived benzamides” (priority 1995, dated 1997)
pKd, pKi: −log10 of the molar value. Where a name gives a salt, the structure may show the parent alone.

Tests used:
5-HT4 receptor subtype = details: mouse embryonic colliculi neurons; cited from earlier work
5-HT4 receptors = details: cited from earlier work
[1] = tested on: gastric emptying of solid meals; assay: Canine gastric emptying in vivo model, alpha-2 adrenergic model of gastroparesis, solid meal; design: species or system dog; details: % emptied, treated, emptying delayed by alpha-2 adrenergic agonist
5-HT3 receptors = target: T1, 5-HT3 receptors (Mus musculus, UniProt P23979); assay: Serotonin 5-HT3 receptor binding assay, [3H]GR65630, NG108-15 membranes; details: for pKi: Ki (5-HT3 receptors), [3H]GR65630 1 nM, apparent Ki calculated from IC50
T1 construct: endogenous in cells; host or cells: NG108-15 neuroblastoma cells (membranes)
T1 sequence (P23979 24-489): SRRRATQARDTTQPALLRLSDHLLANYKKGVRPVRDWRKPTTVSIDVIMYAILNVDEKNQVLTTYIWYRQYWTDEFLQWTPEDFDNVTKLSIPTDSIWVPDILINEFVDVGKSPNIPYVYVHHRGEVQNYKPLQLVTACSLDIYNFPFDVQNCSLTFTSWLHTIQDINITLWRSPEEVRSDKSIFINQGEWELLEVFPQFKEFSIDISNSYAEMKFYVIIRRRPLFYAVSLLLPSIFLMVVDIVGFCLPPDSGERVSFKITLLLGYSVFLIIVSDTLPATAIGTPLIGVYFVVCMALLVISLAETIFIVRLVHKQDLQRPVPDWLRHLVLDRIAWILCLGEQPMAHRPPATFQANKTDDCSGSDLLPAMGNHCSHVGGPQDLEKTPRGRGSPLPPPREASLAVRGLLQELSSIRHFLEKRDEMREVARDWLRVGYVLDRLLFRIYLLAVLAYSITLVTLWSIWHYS
Protocol: Preparation of Membrane Suspensions
NG108-15 neuroblastoma cells were cultured at 37° C. in closed culture flasks for 3-4 days or to confluence (6-16×10^6 cells/flask). […] The cells were centrifuged at 900×g for five minutes at 4° C. At this point the cells could be frozen. The (frozen or freshly prepared) pellets from each flask were suspended in 4 ml buffer and homogenized a second time as above. The resulting supernatant was used for radioligand binding studies.
To each well of a microtiter plate were added 100 μl tissue, 50 μl [^3 H]GR65630 (4 nM stock, SA=64 Ci/mmol from Dupont/NEN) and 50 μl drugs. Nonspecific binding was measured in the presence of 10 μM zacopride. Reactions were incubated for 45-60 minutes at 25° C. followed by filtration under reduced pressure through GF/B-type filters with the aid of either a Brandel or Skatron macro harvester. The filters were washed with ice-cold buffer (a 6 sec wash time on the Skatron harvester, using filters presoaked with polyethylenimine) and specific binding was measured by either a Packard CA 1900 or an LKB Betaplate counter. […] IC50 values were determined for test drugs, and Ki values calculated from the equation: […]

GI transit [2] = details: man; cited from earlier work
GI transit [3] = details: man; cited from earlier work; remark: listed apart in the source
gastric emptying [4] = details: cited from earlier work
gastric emptying [5] = details: in vivo; cited from earlier work
[6] = tested on: guinea pig stomach muscle strip; details: cited from earlier work
antroduodenal motility = details: coadministered with cisapride; dogs; cited from earlier work
[7] = tested on: transit of a charcoal meal; details: mouse, in vivo; cited from earlier work
[8] = tested on: peristalsis in the GI tract; details: various animal models; cited from earlier work
[9] = tested on: 5-HT3-mediated Bezold Jarisch reflex; details: in vivo; cited from earlier work
[10] = tested on: guinea pig stomach strips; details: cited from earlier work

For COc1cc(N)c(Cl)cc1C(=O)NC1CCN2CCCC1C2 (stereo not shown) [BRL-24924], the “correlation of prokinetic activity with 5-HT4 agonist activity” value (5-HT4 receptor subtype) is listed as “correlate with agonist activity at a novel 5-HT4 receptor subtype” and the “receptor mediating the peristaltic reflex” value (5-HT4 receptors) is listed as “mediated through agonism at 5-HT4 receptors”.
For COc1cc(N)c(Cl)cc1C(=O)NC1CCN(CCCOc2ccc(F)cc2)CC1OC (stereo not shown) [Cisapride], the “correlation of prokinetic activity with 5-HT4 agonist activity” value (5-HT4 receptor subtype) is listed as “correlate with agonist activity at a novel 5-HT4 receptor subtype” and the “Canine Solid Gastric Emptying (% Control to Treat)” value ([1]; control 23.2%, at 0.3 mg/kg IG) is listed as 36.6%.
COc1cc(N)c(Cl)cc1C(=O)NCC1C2CC3CC1CN(C3)C2 (stereo not drawn) [Example 2, Endo-4-amino-N-(1-azacyclo[3.3.1.1^3,7]decan-4-ylmethyl)-5-chloro-2-methoxybenzamide hydrochloride] gave a pKi (5-HT3 receptors; NG108-15 membranes, 25° C.) of 6.84.
With COc1cc(N)c(Cl)cc1C(=O)NCC1C2CC3CC1CN(C3)C2 (stereo not drawn) [Example 4, Exo-4-amino-N-(1-azacyclo[3.3.1.1^3,7]decan-4-ylmethyl)-5-chloro-2-methoxybenzamide, hydrochloride] the pKi (5-HT3 receptors; NG108-15 membranes, 25° C.) was 7.59 and the “Canine Solid Gastric Emptying (% Control to Treat)” value ([1]; control 20.2%, at 0.3 mg/kg IV) was 35.1%.
In the case of Cc1nccn1CC1CCc2c(c3ccccc3n2C)C1=O (stereo not shown) [GR38032], the GI transit (GI transit [2]) is listed as “failed to accelerate GI transit”, the colonic transit (GI transit [2]) is listed as “slowed colonic transit in man” and the “small intestinal transit times or mouth-to-cecum transit times” value (GI transit [3]) is listed as “did not alter small intestinal transit times or mouth-to-cecumtransit times”.
In the case of CN1[C@@H]2CC[C@H]1C[C@@H](OC(=O)c1c[nH]c3ccccc13)C2 [ICS-205930], the “gastric emptying rates in vivo” value (gastric emptying [4]) is given as “increases in gastric emptying rates in vivo”, the gastric emptying (gastric emptying [5]) is given as “enhanced gastric emptying” and the “guinea pig stomach muscle strip contraction in vitro” value [6] is given as “enhanced guinea pig stomach muscle strip contraction in vitro”. For the same molecule, the “effect on the responses to cisapride” value (antroduodenal motility) was “did not affect the responses to cisapride”.
In the case of CN1[C@@H]2CC[C@H]1C[C@@H](OC(=O)c1cc(Cl)cc(Cl)c1)C2 [MDL 72222], the “gastric emptying rates in vivo” value (gastric emptying [4]) is given as “increases in gastric emptying rates in vivo” and the “guinea pig stomach muscle strip contraction in vitro” value [6] is given as “enhanced guinea pig stomach muscle strip contraction in vitro”.
For Cc1nccn1CC1CCc2c(c3ccccc3n2C)C1=O.Cl.O.O (stereo not shown) [SN-307], the “transit of a charcoal meal in mice” value [7] is given as “enhanced transit of a charcoal meal in mice”.
For NCCc1c[nH]c2ccc(O)cc12 [Serotonin, 5-hydroxytryptamine], the “peristalsis in the GI tract” value [8] is listed as “promote peristalsis in the GI tract” and the “receptor mediating the peristaltic reflex” value (5-HT4 receptors) is listed as “mediated through agonism at 5-HT4 receptors”.
In the case of Cc1nc[nH]c1CCC(=O)c1cn(C)c2ccccc12 [[^3 H]GR65630], the pKd (5-HT3 receptors) was 8.82 and the Bmax (5-HT3 receptors; radioligand, NG108-15 membranes, 25° C.) was 195 fmole/mg protein.
In the case of CCN(CC)CCNC(=O)c1cc(Cl)c(N)cc1OC [metoclopramide], the “5-HT3-mediated Bezold Jarisch reflex” value [9] is given as “blocks the 5-HT3 -mediated Bezold Jarisch reflex”, the “gastric emptying rates in vivo” value (gastric emptying [4]) is given as “increases in gastric emptying rates in vivo” and the “guinea pig stomach muscle strip contraction in vitro” value [6] is given as “enhanced guinea pig stomach muscle strip contraction in vitro”. For the same molecule, the “electrical-field stimulated contractions in guinea pig stomach strips” value [10] was “enhanced electrical-field stimulated contractions”.
